Assay [1] deals with GGTase I (K-Ras4B as substrate) (Homo sapiens, UniProt P49354+P53609). Put plainly: GGTase I filter-binding assay, K-Ras4B as substrate (library screens). The class given is biochemical. To be noted: compound 50 μM; DMSO = 100%; smaller = better inhibition; 50 µM. As to the method:
(§1) The pilot library was screened for inhibitors of protein geranylgeranyltransferase type I. Protein prenyltransferase assays were carried out by using filter binding. Two different substrates, RhoA and K-Ras4B, were used for the assay. RhoA ends with the CaaL motif and is an exclusive substrate for GGTase I, while K-Ras4B ends with the CaaX motif and is modified by both GGTase I and FTase.
(§2) In the assay, a fixed concentration of 100 μM was used and the results are plotted for the inhibition of RhoA (vertical axis) as well as for K-Ras4B (horizontal axis). […] They are 2,6-diaryl-N-tosyl-1,2,5,6-tetrahydropyridine-3-carboxylic acids, except P2-D5 that is missing an aryl substituent at C2.
The % activity of GGTase I was determined as follows: a working solution that contained each compound in DMSO at the concentration of 1 mM was prepared. The working solution was added to GGTase I reaction mixture so that the final concentration of the compound is 50 μM. GGTase I activity was assayed by incubating [^3H]GGPP with K-Ras4B or RhoA protein in the presence of GGTase I and examining radioactivity incorporated into the substrate protein by spotting onto a filter paper. After washing with TCA, ethanol and acetone, the radioactivity retained on the filter was determined by the use of a scintillation counter. GGTase I activity in the presence of DMSO was taken as a 100% value and the activity in the presence of the compound was shown as percent activity compared with the 100% value. […] For 6-aryl-4-mercapto-N-sulfonyl-piperidine-3-carboxylic acid 11 the 4-mercapto substituent appeared critical to endowing GGTase inhibitory activity. […] 4-Chlorobenzylthio substituent was the next best; 12 compounds out of 21 containing the 4-chlorobenzylthio moiety were active. 4-Benzylthio substituent was also good; 7 piperidines out of 21 bearing 4-benzylthio group were active. […] 19 imines (C15>C12=C41>C40>C01=C11>C05=C10=C30=C35=C37=C38>C02, C03, C04, C06, C39=C43) out of 21 appeared in the GGTIs. […] This corresponds to 47 6-aryl-4-mercapto-N-sulfonyl-piperidine-3-carboxylic acids out of 357 compounds.
A collection of 138 heterocycles was screened for their ability to inhibit the activity of human GGTase-I to geranylgeranylate K-Ras4B or RhoA. Purified GGTase-I was incubated with its substrate protein K-Ras4B or RhoA, [^3H]GGPP, and the 138 compounds. After 30 min, the degree of incorporation of tritiated geranylgeranyl groups was measured using a scintillation counter.

Assay [2] addresses GGTase I (RhoA as substrate) (Homo sapiens, UniProt P49354+P53609). Nature of the assay: GGTase I filter-binding assay, RhoA as substrate (library screens). The class given is biochemical. The following applies: compound 50 μM, DMSO = 100%, smaller = better inhibition. As to the method: as §1, §2
The % activity of GGTase I was determined as follows: a working solution that contained each compound in DMSO at the concentration of 1 mM was prepared. The working solution was added to GGTase I reaction mixture so that the final concentration of the compound is 50 μM. GGTase I activity was assayed by incubating [^3H]GGPP with K-Ras4B or RhoA protein in the presence of GGTase I and examining radioactivity incorporated into the substrate protein by spotting onto a filter paper. After washing with TCA, ethanol and acetone, the radioactivity retained on the filter was determined by the use of a scintillation counter. GGTase I activity in the presence of DMSO was taken as a 100% value and the activity in the presence of the compound was shown as percent activity compared with the 100% value. […] For 6-aryl-4-mercapto-N-sulfonyl-piperidine-3-carboxylic acid 11 the 4-mercapto substituent appeared critical to endowing GGTase inhibitory activity. […] 4-Chlorobenzylthio substituent was the next best; 12 compounds out of 21 containing the 4-chlorobenzylthio moiety were active. […]
A collection of 138 heterocycles was screened for their ability to inhibit the activity of human GGTase-I to geranylgeranylate K-Ras4B or RhoA. […] After 30 min, the degree of incorporation of tritiated geranylgeranyl groups was measured using a scintillation counter.

The source of these data is patent publication US8815935B2, “Inhibitors of protein prenyltransferases” (The Regents of the University of California, priority 2008, dated 2014).

Regarding `Cc1ccccc1S(=O)(=O)N1C(c2ccc(Cl)cc2)CC=C(C(=O)O)[C@@H]1c1ccccc1` (stereo partly shown) [drawing 39], in assay [1], the “% activity of GGTase I for K-Ras4B in the presence of the compound” value was found to be 15.6%. Moreover, in assay [2], the “% activity of GGTase I for RhoA in the presence of the compound” value stood at 12.4%.

Consider `Cc1ccccc1S(=O)(=O)N1C(c2ccc(Cl)cc2)CC=C(C(=O)O)[C@@H]1c1ccccc1` (stereo partly shown) [drawing 42], for which, in assay [1], the “% activity of GGTase I for K-Ras4B in the presence of the compound” value is recorded as 5.4%. The “% activity of GGTase I for RhoA in the presence of the compound” value in assay [2] was found to be 3.0%.
